Data from paper PMC8659069, “Optimization of 4-Anilinoquinolines as Dengue Virus Inhibitors” (Molecules, 2021).

test system: DENV2; assay: microbe, parasite or virus in culture; format: cell-based, dengue virus (DENV2, New Guinea C strain); conditions: not given

In the case of `CNc1cccc(Nc2ccnc3ccc(Br)cc23)c1` [Compound 21, N^1-(6-bromoquinolin-4-yl)-N^3-methylbenzene-1,3-diamine], the “selectivity index window (CC50/EC50, DENV, Huh7)” value is reported as 22 fold.

same assay, conditions: Dengue virus, DENV2, Huh-7, 48 h, read-out: DENV Inhibition EC50

First: COc1cccc(Nc2ccnc3ccc(C(F)(F)F)cc23)c1 [Compound 4]
Second: Oc1cccc(Nc2ccnc3ccc(C(F)(F)F)cc23)c1 [Compound 5]
The EC50 of the first is 3.3-fold lower: 0.82 µM for the first, 2.7 µM for the second. The first is the more potent here.

First: O=[N+]([O-])c1cccc(Nc2ccnc3ccc(C(F)(F)F)cc23)c1 [Compound 6]
Second: Nc1cccc(Nc2ccnc3ccc(C(F)(F)F)cc23)c1 [Compound 7]
The EC50 of the first is higher: over 10 µM for the first, 5.9 µM for the second.

Going from `CNc1cccc(Nc2ccnc3ccc(C(F)(F)F)cc23)c1` [Compound 8] to `CN(C)c1cccc(Nc2ccnc3ccc(C(F)(F)F)cc23)c1` [Compound 9], the EC50 falls from 8.9 µM to 2.3 µM (3.9-fold).

First: OCc1cccc(Nc2ccnc3ccc(C(F)(F)F)cc23)c1 [Compound 10]
Second: OCc1cccc(Nc2ccnc3ccc(Br)cc23)c1 [Compound 23]
The EC50 of the first is 1.8-fold higher: 6.6 µM for the first, 3.7 µM for the second. The second is the more potent here.

First: COc1cccc(Nc2ccnc3ccc(Br)cc23)c1 [Compound 11]
Second: CC(C)(C)Oc1cccc(Nc2ccnc3ccc(Br)cc23)c1 [Compound 26]
The EC50 of the first is 2.7-fold lower: 0.84 µM for the first, 2.3 µM for the second. The first is the more potent here.

Going from `Oc1cccc(Nc2ccnc3ccc(Br)cc23)c1` [Compound 12, 3-((6-bromoquinolin-4-yl)amino)phenol] to `Nc1cccc(Nc2ccnc3ccc(Br)cc23)c1` [Compound 20], the EC50 rises from 0.63 µM to over 10 µM.

Compared with `COc1cccc(Nc2ccnc3ccccc23)c1` [Compound 13], `Oc1cccc(Nc2ccnc3ccccc23)c1` [Compound 14] is higher in EC50: 2.5 µM for the first, over 10 µM for the second.

Going from `COc1cccc(Nc2ccnc3ccc(OC)cc23)c1` [Compound 15] to `COc1ccc2nccc(Nc3cccc(O)c3)c2c1` [Compound 16], the EC50 rises from 4.4 µM to over 10 µM.

`COc1cccc(Nc2ccnc3ccc(S(C)(=O)=O)cc23)c1` [Compound 17] and `CS(=O)(=O)c1ccc2nccc(Nc3cccc(O)c3)c2c1` [Compound 18] cannot be ordered by EC50: over 10 µM for the first, over 10 µM for the second.

Compared with `O=[N+]([O-])c1cccc(Nc2ccnc3ccc(Br)cc23)c1` [Compound 19], `CNc1cccc(Nc2ccnc3ccc(Br)cc23)c1` [Compound 21, N^1-(6-bromoquinolin-4-yl)-N^3-methylbenzene-1,3-diamine] is lower in EC50: over 10 µM for the first, 0.24 µM for the second. The second is the more potent here.

First: CN(C)c1cccc(Nc2ccnc3ccc(Br)cc23)c1 [Compound 22]
Second: CC(C)(C)c1cccc(Nc2ccnc3ccc(Br)cc23)c1 [Compound 27]
The EC50 of the first is higher: over 10 µM for the first, 0.94 µM for the second.

Going from `OCc1ccccc1Nc1ccnc2ccc(Br)cc12` [Compound 24] to `Brc1ccc2nccc(Nc3cccc4c3OCO4)c2c1` [Compound 30], the EC50 rises from 7.1 µM to over 10 µM.

`FS(F)(F)(F)(F)c1cccc(Nc2ccnc3ccc(Br)cc23)c1` [Compound 25] and `Brc1ccc2nccc(Nc3ccc4c(c3)OCO4)c2c1` [Compound 28] are within 1.5-fold of each other in EC50: 1.5 µM for the first, 1.7 µM for the second.

`Brc1ccc2nccc(Nc3ccc4c(c3)COC4)c2c1` [Compound 29] and `Brc1ccc2nccc(Nc3cccc4c3COC4)c2c1` [Compound 31] cannot be ordered by EC50: over 10 µM for the first, over 10 µM for the second.

same assay, conditions: Dengue virus, DENV2, Huh-7, 48 h, read-out: DENV Inhibition EC90

In order of rising EC90:
1. CNc1cccc(Nc2ccnc3ccc(Br)cc23)c1 [Compound 21, N^1-(6-bromoquinolin-4-yl)-N^3-methylbenzene-1,3-diamine]  0.69 µM
2. COc1cccc(Nc2ccnc3ccc(C(F)(F)F)cc23)c1 [Compound 4]  1.5 µM
3. Oc1cccc(Nc2ccnc3ccc(Br)cc23)c1 [Compound 12, 3-((6-bromoquinolin-4-yl)amino)phenol]  3.2 µM

test system: not listed separately; assay: in vitro; conditions: human

`COc1cccc(Nc2ccnc3ccc(C(F)(F)F)cc23)c1` [Compound 4] and `Oc1cccc(Nc2ccnc3ccc(C(F)(F)F)cc23)c1` [Compound 5] cannot be ordered by CC50: over 10 µM for the first, over 10 µM for the second.

`O=[N+]([O-])c1cccc(Nc2ccnc3ccc(C(F)(F)F)cc23)c1` [Compound 6] and `Nc1cccc(Nc2ccnc3ccc(C(F)(F)F)cc23)c1` [Compound 7] cannot be ordered by CC50: over 10 µM for the first, over 10 µM for the second.

`CNc1cccc(Nc2ccnc3ccc(C(F)(F)F)cc23)c1` [Compound 8] and `CN(C)c1cccc(Nc2ccnc3ccc(C(F)(F)F)cc23)c1` [Compound 9] cannot be ordered by CC50: over 10 µM for the first, over 10 µM for the second.

`OCc1cccc(Nc2ccnc3ccc(C(F)(F)F)cc23)c1` [Compound 10] and `OCc1cccc(Nc2ccnc3ccc(Br)cc23)c1` [Compound 23] cannot be ordered by CC50: over 10 µM for the first, over 10 µM for the second.

Going from `COc1cccc(Nc2ccnc3ccc(Br)cc23)c1` [Compound 11] to `CC(C)(C)Oc1cccc(Nc2ccnc3ccc(Br)cc23)c1` [Compound 26], the CC50 falls from over 10 µM to 9.2 µM.

`Oc1cccc(Nc2ccnc3ccc(Br)cc23)c1` [Compound 12, 3-((6-bromoquinolin-4-yl)amino)phenol] and `Nc1cccc(Nc2ccnc3ccc(Br)cc23)c1` [Compound 20] cannot be ordered by CC50: over 10 µM for the first, over 10 µM for the second.

`COc1cccc(Nc2ccnc3ccccc23)c1` [Compound 13] and `Oc1cccc(Nc2ccnc3ccccc23)c1` [Compound 14] cannot be ordered by CC50: over 10 µM for the first, over 10 µM for the second.

`COc1cccc(Nc2ccnc3ccc(OC)cc23)c1` [Compound 15] and `COc1ccc2nccc(Nc3cccc(O)c3)c2c1` [Compound 16] cannot be ordered by CC50: over 10 µM for the first, over 10 µM for the second.

`COc1cccc(Nc2ccnc3ccc(S(C)(=O)=O)cc23)c1` [Compound 17] and `CS(=O)(=O)c1ccc2nccc(Nc3cccc(O)c3)c2c1` [Compound 18] cannot be ordered by CC50: over 10 µM for the first, over 10 µM for the second.

`O=[N+]([O-])c1cccc(Nc2ccnc3ccc(Br)cc23)c1` [Compound 19] and `CN(C)c1cccc(Nc2ccnc3ccc(Br)cc23)c1` [Compound 22] cannot be ordered by CC50: over 10 µM for the first, over 10 µM for the second.

`OCc1ccccc1Nc1ccnc2ccc(Br)cc12` [Compound 24] and `Brc1ccc2nccc(Nc3cccc4c3OCO4)c2c1` [Compound 30] cannot be ordered by CC50: over 10 µM for the first, over 10 µM for the second.

First: FS(F)(F)(F)(F)c1cccc(Nc2ccnc3ccc(Br)cc23)c1 [Compound 25]
Second: CC(C)(C)c1cccc(Nc2ccnc3ccc(Br)cc23)c1 [Compound 27]
The CC50 of the first is higher: over 10 µM for the first, 6 µM for the second.

Going from `Brc1ccc2nccc(Nc3ccc4c(c3)OCO4)c2c1` [Compound 28] to `Brc1ccc2nccc(Nc3ccc4c(c3)COC4)c2c1` [Compound 29], the CC50 rises from 8.6 µM to over 10 µM.

`Brc1ccc2nccc(Nc3cccc4c3COC4)c2c1` [Compound 31] showed a CC50 of over 10 µM.

test system: not listed separately; assay: in vitro; conditions: human; remark: another data set of the same source

`COc1cccc(Nc2ccnc3ccc(C(F)(F)F)cc23)c1` [Compound 4] and `Oc1cccc(Nc2ccnc3ccc(Br)cc23)c1` [Compound 12, 3-((6-bromoquinolin-4-yl)amino)phenol] cannot be ordered by CC50: over 10 µM for the first, over 10 µM for the second.

test system: VEEV (TC-83); assay: microbe, parasite or virus in culture; format: cell-based, Venezuelan Equine Encephalitis virus; conditions: not given

For `CNc1cccc(Nc2ccnc3ccc(Br)cc23)c1` [Compound 21, N^1-(6-bromoquinolin-4-yl)-N^3-methylbenzene-1,3-diamine], the “reduction in potency against VEEV relative to DENV” value was 4-8 fold.

same assay, conditions: Venezuelan equine encephalitis virus, U-87 MG, 18 h, read-out: VEEV Inhibition EC50

Compared with `COc1cccc(Nc2ccnc3ccc(C(F)(F)F)cc23)c1` [Compound 4], `Oc1cccc(Nc2ccnc3ccc(Br)cc23)c1` [Compound 12, 3-((6-bromoquinolin-4-yl)amino)phenol] is lower in EC50: over 10 µM for the first, 9.9 µM for the second. The second is the more potent here.

In the case of `CNc1cccc(Nc2ccnc3ccc(Br)cc23)c1` [Compound 21, N^1-(6-bromoquinolin-4-yl)-N^3-methylbenzene-1,3-diamine], the EC50 is reported as 1.03 µM.

same assay, conditions: Venezuelan equine encephalitis virus, U-87 MG, 18 h, read-out: VEEV Inhibition EC90

`COc1cccc(Nc2ccnc3ccc(C(F)(F)F)cc23)c1` [Compound 4] and `Oc1cccc(Nc2ccnc3ccc(Br)cc23)c1` [Compound 12, 3-((6-bromoquinolin-4-yl)amino)phenol] cannot be ordered by EC90: over 10 µM for the first, over 10 µM for the second.

Molecule `CNc1cccc(Nc2ccnc3ccc(Br)cc23)c1` [Compound 21, N^1-(6-bromoquinolin-4-yl)-N^3-methylbenzene-1,3-diamine] has an EC90 of 10.7 µM.

same assay, conditions: read-out: VEEV Inhibition EC50

Work on `CNc1cccc(Nc2ccnc3ccc(Br)cc23)c1` [Compound 21, N^1-(6-bromoquinolin-4-yl)-N^3-methylbenzene-1,3-diamine] yielded an EC50 of 1 µM.

same assay, conditions: read-out: VEEV Inhibition EC90

In the case of `CNc1cccc(Nc2ccnc3ccc(Br)cc23)c1` [Compound 21, N^1-(6-bromoquinolin-4-yl)-N^3-methylbenzene-1,3-diamine], the EC90 is reported as over 10 µM.

test system: not listed separately; assay: in vitro; conditions: African green monkey

`COc1cccc(Nc2ccnc3ccc(C(F)(F)F)cc23)c1` [Compound 4] and `Oc1cccc(Nc2ccnc3ccc(Br)cc23)c1` [Compound 12, 3-((6-bromoquinolin-4-yl)amino)phenol] cannot be ordered by CC50: over 10 µM for the first, over 10 µM for the second.

Work on `CNc1cccc(Nc2ccnc3ccc(Br)cc23)c1` [Compound 21, N^1-(6-bromoquinolin-4-yl)-N^3-methylbenzene-1,3-diamine] yielded a CC50 of over 10 µM.

test system: not given; assay: not given; conditions: not given

Molecule `Oc1cccc(Nc2ccnc3ccc(Br)cc23)c1` [Compound 12, 3-((6-bromoquinolin-4-yl)amino)phenol] has a melting point of over 300 °C.
